Experiment: solubility in water
Type: physicochemical
Text: The compound of formula (XIII) was made and analyzed.

Structure (SMILES): N[C@@H](COC(=O)CCC(=O)OCC(O)CO)C(=O)O (stereo partly shown) [formula (XIII)]
- solubility: 1200 mg/mL

Source: patent US20200140375A1, “COMPOSITIONS AND METHODS FOR TREATING CONDITIONS ASSOCIATED WITH ALTERED TCA CYCLE METABOLISM” (IMBRIA PHARMACEUTICALS, INC., priority 2017, published 2020)
